Converted amounts (≈) assume the structure as drawn.
Tests used:
Format in all cases: functional
Mycoplasma putrefaciens [1] = assay: Antimicrobial activity against Mycoplasma putrefaciens KS1 after 24 hrs by twofold serial dilution method
Mycoplasma putrefaciens [2] = assay: Antimicrobial activity against Mycoplasma putrefaciens Jordanian isolates after 24 hrs by twofold serial dilution method
Mycoplasma putrefaciens [3] = assay: Antimicrobial activity against Mycoplasma putrefaciens French isolates after 24 hrs by twofold serial dilution method

In the case of `O=C(N[C@H](CO)[C@H](O)c1ccc([N+](=O)[O-])cc1)C(Cl)Cl` [CHLORAMPHENICOL], the MIC (Mycoplasma putrefaciens [1]; KS1, 24 h) is reported as 4 µg/mL (≈ 12.4 µM), the MIC50 (Mycoplasma putrefaciens [2]) is reported as 2 µg/mL (≈ 6.19 µM) and the MIC90 (Mycoplasma putrefaciens [2]) is reported as 4 µg/mL (≈ 12.4 µM). It also gave an MIC50 (Mycoplasma putrefaciens [3]) of 4 µg/mL (≈ 12.4 µM) and an MIC90 (Mycoplasma putrefaciens [3]) of 4 µg/mL (≈ 12.4 µM).

`CN(C)[C@@H]1C(O)=C(C(N)=O)C(=O)[C@@]2(O)C(O)=C3C(=O)c4c(O)ccc(Cl)c4[C@@](C)(O)[C@H]3C[C@@H]12` [CHLORTETRACYCLINE] gave an MIC (Mycoplasma putrefaciens [1]; KS1, 24 h) of 4 µg/mL (≈ 8.35 µM), an MIC50 (Mycoplasma putrefaciens [2]) of 4 µg/mL (≈ 8.35 µM) and an MIC90 (Mycoplasma putrefaciens [2]) of 4 µg/mL (≈ 8.35 µM). For the same molecule, the MIC50 (Mycoplasma putrefaciens [3]) was 8 µg/mL (≈ 16.7 µM) and the MIC90 (Mycoplasma putrefaciens [3]) was 16 µg/mL (≈ 33.4 µM).

`O=C(O)c1cn(C2CC2)c2cc(N3CCNCC3)c(F)cc2c1=O` [CIPROFLOXACIN] gave an MIC (Mycoplasma putrefaciens [1]; KS1, 24 h) of 0.25 µg/mL (≈ 0.754 µM), an MIC50 (Mycoplasma putrefaciens [2]) of 0.25 µg/mL (≈ 0.754 µM) and an MIC90 (Mycoplasma putrefaciens [2]) of 0.25 µg/mL (≈ 0.754 µM). For the same molecule, the MIC50 (Mycoplasma putrefaciens [3]) was 0.25 µg/mL (≈ 0.754 µM) and the MIC90 (Mycoplasma putrefaciens [3]) was 0.5 µg/mL (≈ 1.51 µM).

`C[C@H]1c2cccc(O)c2C(=O)C2=C(O)[C@]3(O)C(=O)C(C(N)=O)=C(O)[C@@H](N(C)C)[C@@H]3[C@@H](O)[C@@H]21.O` [DOXYCYCLINE] gave an MIC (Mycoplasma putrefaciens [1]; KS1, 24 h) of 0.03 µg/mL, an MIC50 (Mycoplasma putrefaciens [2]) of 0.125 µg/mL and an MIC90 (Mycoplasma putrefaciens [2]) of 0.25 µg/mL. The MIC50 (Mycoplasma putrefaciens [3]) was 0.25 µg/mL and the MIC90 (Mycoplasma putrefaciens [3]) was 2 µg/mL.

In the case of `CCN1CCN(c2cc3c(cc2F)c(=O)c(C(=O)O)cn3C2CC2)CC1` [ENROFLOXACIN], the MIC (Mycoplasma putrefaciens [1]; KS1, 24 h) is reported as 0.125 µg/mL (≈ 0.348 µM), the MIC50 (Mycoplasma putrefaciens [2]) is reported as 0.125 µg/mL (≈ 0.348 µM) and the MIC90 (Mycoplasma putrefaciens [2]) is reported as 0.125 µg/mL (≈ 0.348 µM). For the same molecule, the MIC50 (Mycoplasma putrefaciens [3]) was 0.125 µg/mL (≈ 0.348 µM) and the MIC90 (Mycoplasma putrefaciens [3]) was 0.25 µg/mL (≈ 0.696 µM).

Work on `CC[C@H]1OC(=O)[C@H](C)[C@@H](O[C@H]2C[C@@](C)(OC)[C@@H](O)[C@H](C)O2)[C@H](C)[C@@H](O[C@@H]2O[C@H](C)C[C@H](N(C)C)[C@H]2O)[C@](C)(O)C[C@@H](C)C(=O)[C@H](C)[C@@H](O)[C@]1(C)O` [ERYTHROMYCIN] yielded an MIC (Mycoplasma putrefaciens [1]; KS1, 24 h) of 0.03 µg/mL (≈ 0.0409 µM), an MIC50 (Mycoplasma putrefaciens [2]) of 0.03 µg/mL (≈ 0.0409 µM) and an MIC90 (Mycoplasma putrefaciens [2]) of 0.03 µg/mL (≈ 0.0409 µM). For the same molecule, the MIC50 (Mycoplasma putrefaciens [3]) was 0.03 µg/mL (≈ 0.0409 µM) and the MIC90 (Mycoplasma putrefaciens [3]) was 0.125 µg/mL (≈ 0.17 µM).

Work on `CCC[C@@H]1C[C@@H](C(=O)N[C@@H]([C@H]2O[C@H](SC)[C@H](O)[C@@H](O)[C@H]2O)[C@@H](C)O)N(C)C1` [LINCOMYCIN] yielded an MIC (Mycoplasma putrefaciens [1]; KS1, 24 h) of 1 µg/mL (≈ 2.46 µM), an MIC50 (Mycoplasma putrefaciens [2]) of 0.5 µg/mL (≈ 1.23 µM) and an MIC90 (Mycoplasma putrefaciens [2]) of 1 µg/mL (≈ 2.46 µM). It also gave an MIC50 (Mycoplasma putrefaciens [3]) of 1 µg/mL (≈ 2.46 µM) and an MIC90 (Mycoplasma putrefaciens [3]) of 2 µg/mL (≈ 4.92 µM).

`CCn1cc(C(=O)O)c(=O)c2ccc(C)nc21` [NALIDIXIC ACID] gave an MIC (Mycoplasma putrefaciens [1]; KS1, 24 h) of 512 µg/mL (≈ 2200 µM), an MIC50 (Mycoplasma putrefaciens [2]) greater than 256 µg/mL and an MIC90 (Mycoplasma putrefaciens [2]) greater than 256 µg/mL. For the same molecule, the MIC50 (Mycoplasma putrefaciens [3]) was greater than 256 µg/mL and the MIC90 (Mycoplasma putrefaciens [3]) was greater than 256 µg/mL.

`CCn1cc(C(=O)O)c(=O)c2cc(F)c(N3CCNCC3)cc21` [NORFLOXACIN] was tested, and the MIC (Mycoplasma putrefaciens [1]; KS1, 24 h) was 2 µg/mL (≈ 6.26 µM), the MIC50 (Mycoplasma putrefaciens [2]) was 2 µg/mL (≈ 6.26 µM) and the MIC90 (Mycoplasma putrefaciens [2]) was 2 µg/mL (≈ 6.26 µM). The MIC50 (Mycoplasma putrefaciens [3]) was 2 µg/mL (≈ 6.26 µM) and the MIC90 (Mycoplasma putrefaciens [3]) was 4 µg/mL (≈ 12.5 µM).

`CN(C)[C@@H]1C(O)=C(C(N)=O)C(=O)[C@@]2(O)C(O)=C3C(=O)c4c(O)cccc4[C@@](C)(O)[C@H]3[C@H](O)[C@@H]12` [OXYTETRACYCLINE] gave an MIC (Mycoplasma putrefaciens [1]; KS1, 24 h) of 0.5 µg/mL (≈ 1.09 µM), an MIC50 (Mycoplasma putrefaciens [2]) of 0.5 µg/mL (≈ 1.09 µM) and an MIC90 (Mycoplasma putrefaciens [2]) of 0.5 µg/mL (≈ 1.09 µM). The MIC50 (Mycoplasma putrefaciens [3]) was 1 µg/mL (≈ 2.17 µM) and the MIC90 (Mycoplasma putrefaciens [3]) was 4 µg/mL (≈ 8.69 µM).

For `CN[C@@H]1[C@H](O)[C@H](NC)[C@H]2O[C@@]3(O)C(=O)C[C@@H](C)O[C@H]3O[C@@H]2[C@H]1O` [SPECTINOMYCIN], the MIC (Mycoplasma putrefaciens [1]; KS1, 24 h) was 32 µg/mL (≈ 96.3 µM), the MIC50 (Mycoplasma putrefaciens [2]) was 16 µg/mL (≈ 48.1 µM) and the MIC90 (Mycoplasma putrefaciens [2]) was 32 µg/mL (≈ 96.3 µM). It also gave an MIC50 (Mycoplasma putrefaciens [3]) of 16 µg/mL (≈ 48.1 µM) and an MIC90 (Mycoplasma putrefaciens [3]) of 16 µg/mL (≈ 48.1 µM).

`CN[C@@H]1[C@H](O[C@H]2[C@H](O[C@H]3[C@H](O)[C@@H](O)[C@H](N=C(N)N)[C@@H](O)[C@@H]3N=C(N)N)O[C@@H](C)[C@]2(O)C=O)O[C@@H](CO)[C@H](O)[C@H]1O` [STREPTOMYCIN] gave an MIC (Mycoplasma putrefaciens [1]; KS1, 24 h) of 64 µg/mL (≈ 110 µM), an MIC50 (Mycoplasma putrefaciens [2]) of 32 µg/mL (≈ 55 µM) and an MIC90 (Mycoplasma putrefaciens [2]) of 32 µg/mL (≈ 55 µM). It also gave an MIC50 (Mycoplasma putrefaciens [3]) of 32 µg/mL (≈ 55 µM) and an MIC90 (Mycoplasma putrefaciens [3]) of 64 µg/mL (≈ 110 µM).

With `CC[C@H]1OC(=O)C[C@@H](O)[C@H](C)[C@@H](O[C@@H]2O[C@H](C)[C@@H](O[C@H]3C[C@@](C)(O)[C@@H](O)[C@H](C)O3)[C@H](N(C)C)[C@H]2O)[C@@H](CC=O)C[C@@H](C)C(=O)/C=C/C(C)=C/[C@@H]1CO[C@@H]1O[C@H](C)[C@@H](O)[C@@H](OC)[C@H]1OC` [TYLOSIN] the MIC (Mycoplasma putrefaciens [1]; KS1, 24 h) was 0.06 µg/mL (≈ 0.0655 µM), the MIC50 (Mycoplasma putrefaciens [2]) was 0.015 µg/mL (≈ 0.0164 µM) and the MIC90 (Mycoplasma putrefaciens [2]) was 0.015 µg/mL (≈ 0.0164 µM). For the same molecule, the MIC50 (Mycoplasma putrefaciens [3]) was 0.03 µg/mL (≈ 0.0327 µM) and the MIC90 (Mycoplasma putrefaciens [3]) was 0.06 µg/mL (≈ 0.0655 µM).

GENTAMICIN gave an MIC (Mycoplasma putrefaciens [1]) of 64 µg/mL, an MIC50 (Mycoplasma putrefaciens [2]) of 32 µg/mL and an MIC90 (Mycoplasma putrefaciens [2]) of 32 µg/mL. The MIC50 (Mycoplasma putrefaciens [3]) was 64 µg/mL and the MIC90 (Mycoplasma putrefaciens [3]) was 64 µg/mL.

With SPIRAMYCIN the MIC (Mycoplasma putrefaciens [1]) was 0.25 µg/mL, the MIC50 (Mycoplasma putrefaciens [2]) was 0.125 µg/mL and the MIC90 (Mycoplasma putrefaciens [2]) was 0.25 µg/mL. It also gave an MIC50 (Mycoplasma putrefaciens [3]) of 0.25 µg/mL and an MIC90 (Mycoplasma putrefaciens [3]) of 0.5 µg/mL.
